Results as given in ChEMBL document CHEMBL4190326, “Novel Gomisin B analogues as potential cytotoxic agents: Design, synthesis, biological evaluation and docking studies” (Eur J Med Chem, 2017).
Calls of active or inactive are those of the source. The calls are words filed in the database; no cut-off is given here.

Experiments:
[1] = system: SiHa; assay: Cytotoxicity against human SiHa cells assessed as reduction in cell viability measured after 48 hrs by SRB assay; assay type: functional, cell-based
[2] = system: HEK293; assay: Cytotoxicity against HEK293 cells assessed as reduction in cell viability measured after 48 hrs by SRB assay; assay type: cell-based; details: Homo sapiens, HEK293, 48 h
[3] = Selectivity index, ratio of IC50 for HEK293 cells to IC50 for human DU145 cells; assay type: toxicity; details: HEK293 cells versus DU145 cells, read-out: Ratio IC50
[4] = system: MDA-MB-231; assay: Cytotoxicity against human MDA-MB-231 cells assessed as reduction in cell viability measured after 48 hrs by SRB assay; assay type: functional, cell-based; details: MDA-MB-231, 48 h
[5] = system: A549; assay: Cytotoxicity against human A549 cells assessed as reduction in cell viability measured after 48 hrs by SRB assay; assay type: functional, cell-based; details: A549, 48 h
[6] = system: DU-145; assay: Cytotoxicity against human DU145 cells assessed as reduction in cell viability measured after 48 hrs by SRB assay; assay type: functional, cell-based; details: DU-145, 48 h
[7] = system: IMR-32; assay: Cytotoxicity against human IMR32 cells assessed as reduction in cell viability measured after 48 hrs by SRB assay; assay type: functional, cell-based; details: IMR-32, 48 h
[8] = system: PANC-1; assay: Cytotoxicity against human PANC1 cells assessed as reduction in cell viability measured after 48 hrs by SRB assay; assay type: functional, cell-based; details: PANC-1, 48 h
[9] = species on record: Bos taurus; assay: Inhibition of bovine brain tubulin polymerization measured for 1 hr at 1 min interval by fluorescence assay relative to control
[10] = system: HeLa; assay: Cell cycle arrest in human HeLa cells assessed as G2/M phase accumulation after 24 hrs by propidium iodide staining based flow cytometric analysis (reference value: 29.18%); assay type: functional
[11] = molecular target: T1, Tubulin (Homo sapiens) (UniProt P68371+Q9H4B7+P0DPH7+P68366+Q13509+Q71U36+P04350+Q3ZCM7+P07437+P68363+Q9BQE3+Q6PEY2+Q13885+Q9BVA1+Q9BUF5); assay: Induction of tubulin polymerization in human HeLa cells assessed as increase in insoluble tubulin fraction after 24 hrs by Western blot analysis; assay type: cell-based
[12] = molecular target: T1, Tubulin (Homo sapiens); assay: Induction of tubulin polymerization in human HeLa cells assessed as multiple spindle formation after 24 hrs by DAPI staining/confocal microscopy-based immunofluorescence analysis; assay type: cell-based
[13] = system: HeLa; assay: Cell cycle arrest in human HeLa cells assessed as G2/M phase accumulation at 20 uM after 24 hrs by propidium iodide staining based flow cytometric analysis (reference value: 29.18%); assay type: functional
[14] = species on record: Bos taurus; assay: Induction of bovine brain tubulin polymerization at 5 uM measured for 1 hr at 1 min interval by fluorescence assay relative to control
[15] = system: HeLa; assay: Cell cycle arrest in human HeLa cells assessed as G2/M phase accumulation after 24 hrs by propidium iodide staining based flow cytometric analysis; assay type: functional
[16] = molecular target: T1, Tubulin (Homo sapiens); assay: Induction of tubulin polymerization in human HeLa cells assessed as chromosomal alignment on metaphase plate at 10 uM after 24 hrs by DAPI staining/confocal microscopy-based immunofluorescence analysis; assay type: cell-based
[17] = system: HeLa; assay: Cell cycle arrest in human HeLa cells assessed as G2/M phase accumulation at 10 uM after 24 hrs by propidium iodide staining based flow cytometric analysis (reference value: 29.18%); assay type: functional
[18] = system: HeLa; assay: Cell cycle arrest in human HeLa cells assessed as G2/M phase accumulation at 5 uM after 24 hrs by propidium iodide staining based flow cytometric analysis (reference value: 29.18%); assay type: functional

Row | fold change (FC) [9] | Activity [11] | Activity [12] | fold change (FC) [14] | Activity [16] | Compound | IC50 [1] [µM] | IC50 [2] [µM] | selectivity ratio [3] | IC50 [4] [µM] | IC50 [5] [µM] | IC50 [6] [µM] | IC50 [7] [µM] | IC50 [8] [µM] | Activity [10] [%] | Activity [13] [%] | Activity [15] | Activity [17] [%] | Activity [18] [%]
1 |  |  |  |  |  | COc1cc2c(c(OC)c1OC)-c1c(cc3c(c1OC)OCO3)C[C@H](C)[C@@](C)(O)/C2=N/OCc1cn(CC(=O)Nc2ccccc2)nn1 | 88.6 | > 100 | 1.1 | 79.8 | 93.7 | 91.5 | 86.3 | 91.1 |  |  |  |  | 
2 |  |  |  |  |  | COc1cc2c(c(OC)c1OC)-c1c(cc3c(c1OC)OCO3)C[C@H](C)[C@@](C)(O)/C2=N/OCc1cn(-c2cc(C)cc(C)c2)nn1 | 85.1 | > 100 | 1.1 | 81.4 | 91.7 | 90.6 | 79.8 | 89.3 |  |  |  |  | 
3 |  |  |  |  |  | COc1cc2c(c(OC)c1OC)-c1c(cc3c(c1OC)OCO3)C[C@H](C)[C@@](C)(O)/C2=N/OCc1cn(-c2ccccc2C#N)nn1 | 86.4 | > 100 | 1.1 | 71.1 | 94.2 | 92.7 | 79.8 | 87.3 |  |  |  |  | 
4 |  |  |  |  |  | COc1cc(OC)c(-n2cc(CO/N=C3\c4cc(OC)c(OC)c(OC)c4-c4c(cc5c(c4OC)OCO5)C[C@H](C)[C@@]3(C)O)nn2)cc1OC | 69.5 | > 100 | 1.1 | 72.8 | 87.5 | 86.2 | 76.8 | 76.8 |  |  |  |  | 
5 | 0.15 |  |  |  |  | COc1ccc(/C=C\c2cc(OC)c(OC)c(OC)c2)cc1O |  |  |  |  |  |  |  |  |  |  |  |  | 
6 |  |  |  |  |  | COC(=O)Nc1nc2cc(C(=O)c3cccs3)ccc2[nH]1 [NOCODAZOLE] |  |  |  |  |  |  |  |  | 91.7 |  |  |  | 
7 |  |  |  |  |  | COc1cc2c(c(OC)c1OC)-c1c(cc3c(c1OC)OCO3)C[C@H](C)[C@@](C)(O)/C2=N/OCc1cn(-c2cccc([N+](=O)[O-])c2)nn1 | 96.5 | > 100 | 1 | 83.7 | 96.1 | 98.4 | 86.1 | 95.7 |  |  |  |  | 
8 |  |  |  |  |  | COc1cc2c(c(OC)c1OC)-c1c(cc3c(c1OC)OCO3)C[C@H](C)[C@@](C)(O)C2=O | 75.1 | > 100 | 1.2 | 73.1 | 94.8 | 83.1 | 72.3 | 88.6 |  |  |  |  | 
9 |  |  |  |  |  | COc1cccc2c1C(=O)c1c(O)c3c(c(O)c1C2=O)C[C@@](O)(C(=O)CO)C[C@@H]3O[C@H]1C[C@H](N)[C@H](O)[C@H](C)O1 [DOXORUBICIN] | 1.5 | 10 |  |  | 1.6 | 2.4 | 2.3 | 1.9 |  |  |  |  | 
10 |  |  |  |  |  | COc1cc2c(c(OC)c1OC)-c1c(cc3c(c1OC)OCO3)C[C@H](C)[C@@](C)(O)/C2=N/OCc1cn(-c2ccc(C(C)=O)cc2)nn1 | 71.1 | > 100 | 1.08 | 70.8 | 95.7 | 92.4 | 86.4 | 80.3 |  |  |  |  | 
11 |  |  |  |  |  | COc1cc2c(c(OC)c1OC)-c1c(cc3c(c1OC)OCO3)C[C@H](C)[C@@](C)(O)/C2=N/OCc1cn(CC(=O)Nc2ccc(C)cc2)nn1 | 64.9 | > 100 | 1.15 | 72.6 | 84.6 | 86.4 | 79.2 | 71.6 |  |  |  |  | 
12 |  |  |  |  |  | COc1ccc(OC)c(-n2cc(CO/N=C3\c4cc(OC)c(OC)c(OC)c4-c4c(cc5c(c4OC)OCO5)C[C@H](C)[C@@]3(C)O)nn2)c1 | 74.3 | > 100 | 1.1 | 73.8 | 91.8 | 86.7 | 76.5 | 81.2 |  |  |  |  | 
13 |  |  |  |  |  | COc1cc2c(c(OC)c1OC)-c1c(cc3c(c1OC)OCO3)C[C@H](C)[C@@](C)(O)/C2=N/OCc1cn(-c2ccc(I)cc2)nn1 | 76.4 | > 100 | 1.1 | 76.8 | 90.8 | 89.4 | 89.7 | 83.4 |  |  |  |  | 
14 |  |  |  |  |  | COc1cc2c(c(OC)c1OC)-c1c(cc3c(c1OC)OCO3)C[C@H](C)[C@@](C)(O)/C2=N/OCc1cn(CC(=O)Nc2ccc(I)cc2Cl)nn1 | 86.4 | > 100 | 1.01 | 82.9 | 97.5 | 98.7 | 81.6 | 92.1 |  |  |  |  | 
15 |  |  |  |  |  | COc1cc2c(c(OC)c1OC)-c1c(cc3c(c1OC)OCO3)C[C@H](C)[C@@](C)(O)/C2=N/OCc1cn(-c2ccc(Cl)cc2)nn1 | 98.5 | > 100 | 1.01 | 82.6 | > 100 | 99.4 | 83.9 | 92.7 |  |  |  |  | 
16 |  |  |  |  |  | CCc1ccc(-n2cc(CO/N=C3\c4cc(OC)c(OC)c(OC)c4-c4c(cc5c(c4OC)OCO5)C[C@H](C)[C@@]3(C)O)nn2)cc1 | 89.7 | > 100 | 1.1 | 79.1 | 93.8 | 91.7 | 75.8 | 83.4 |  |  |  |  | 
17 |  |  |  |  |  | COc1cc2c(c(OC)c1OC)-c1c(cc3c(c1OC)OCO3)C[C@H](C)[C@@](C)(O)/C2=N/OCc1cn(-c2cc([N+](=O)[O-])ccc2Cl)nn1 | 94.5 | > 100 | 1.1 | 85.7 | 96.4 | 95.1 | 86.4 | 93.4 |  |  |  |  | 
18 |  |  |  |  |  | COc1cc(-n2cc(CO/N=C3\c4cc(OC)c(OC)c(OC)c4-c4c(cc5c(c4OC)OCO5)C[C@H](C)[C@@]3(C)O)nn2)cc(OC)c1Cl | 83.2 | > 100 | 1.1 | 73.2 | 94.2 | 94.7 | 79.1 | 86.4 |  |  |  |  | 
19 |  |  |  |  |  | C#CCO/N=C1\c2cc(OC)c(OC)c(OC)c2-c2c(cc3c(c2OC)OCO3)C[C@H](C)[C@@]1(C)O | 96.1 | > 100 | 1.01 | 80.4 | 98.1 | 99.5 | 82.6 | 97.2 |  |  |  |  | 
20 |  |  |  |  |  | C/C=C(/C)C(=O)O[C@H]1c2cc(OC)c(OC)c(OC)c2-c2c(cc3c(c2OC)OCO3)C[C@H](C)[C@@]1(C)O [ARISANSCHININ N] | 51.2 | 52 | 1.6 | 60.5 | 55.1 | 64.7 | 66.8 | 53.6 |  |  |  |  | 
21 |  |  |  |  |  | COc1cc2c(c(OC)c1OC)-c1c(cc3c(c1OC)OCO3)C[C@H](C)[C@@](C)(O)/C2=N/O | 83.4 | > 100 | 1.05 | 79.5 | 96.4 | 94.7 | 81.4 | 84.9 |  |  |  |  | 
22 |  |  |  |  |  | COc1cc2c(c(OC)c1OC)-c1c(cc3c(c1OC)OCO3)C[C@H](C)[C@@](C)(O)/C2=N/OCc1cn(-c2cccc(C)c2Cl)nn1 | 69.2 | > 100 | 1.1 | 73.8 | 85.6 | 88.6 | 78.3 | 81.9 |  |  |  |  | 
23 |  |  |  |  |  | COc1cc2c(c(OC)c1OC)-c1c(cc3c(c1OC)OCO3)C[C@H](C)[C@@](C)(O)[C@H]2O | 68.3 | > 100 | 1.14 | 81.2 | 94.2 | 87.4 | 86.7 | 78.4 |  |  |  |  | 
24 |  |  |  |  |  | COc1cccc(-n2cc(CO/N=C3\c4cc(OC)c(OC)c(OC)c4-c4c(cc5c(c4OC)OCO5)C[C@H](C)[C@@]3(C)O)nn2)c1 | 92.1 | > 100 | 1.1 | 82.1 | 96.4 | 95.8 | 77.4 | 98 |  |  |  |  | 
25 | 2.68 | Active | Active |  |  | CC(=O)O[C@H]1C(=O)[C@@]2(C)[C@H]([C@H](OC(=O)c3ccccc3)[C@]3(O)C[C@H](OC(=O)[C@H](O)[C@@H](NC(=O)c4ccccc4)c4ccccc4)C(C)=C1C3(C)C)[C@]1(OC(C)=O)CO[C@@H]1C[C@@H]2O |  |  |  |  |  |  |  |  |  |  |  |  | 
26 |  | Dose-dependent effect |  | 1.25 | Active | COc1cc2c(c(OC)c1OC)-c1c(cc3c(c1OC)OCO3)C[C@H](C)[C@@](C)(O)/C2=N/OCc1cn(-c2ccc([N+](=O)[O-])c(Cl)c2)nn1 |  | 50.2 |  | 11.4 | 7.9 | 12.8 | 8.6 |  |  | 46.83 | Dose-dependent effect | 43.06 | 37.11
